Data as given in PubChem BioAssay AID1963971 (Molecular Pharmacology Branch, DTP, NCI, 2024).
Values joined by “and” are separate entries in the source; they are usually repeats but may differ in a detail not shown here. Equal values may be shown once.

Test system: 953936-095-R-J2-PDC spheroids with HUVEC/MSC, viability
Experiment: Anticancer human tumor 953936-095-R-J2-PDC patient-derived cervical squamous cell carcinoma cell line growth inhibition [PI3K]
Conditions: for viability, T/C: stronger effect = lower value; active = viability on the fitted dose curve at most 10% of control; inactive = the rest
In short: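 Targeted small molecules plus PI3K inhibitors, half-log dose series from Cmax (default top 10 microM), were applied to heterotypic spheroids of cancer cells with HUVEC and MSCs. Viability indicated growth inhibition.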

[1] = curve of first compound, second compound 0.00316 µM
[2] = curve of first compound, second compound 0.01 µM
[3] = curve of first compound, second compound 0.0316 µM
[4] = curve of first compound, second compound 0.1 µM
[5] = curve of first compound, second compound 0.316 µM
[6] = curve of first compound, second compound 1 µM
[7] = second compound 0.00316 µM, first compound 0.0316 µM
[8] = second compound 0.00316 µM, first compound 0.1 µM
[9] = second compound 0.00316 µM, first compound 0.316 µM
[10] = second compound 0.00316 µM, first compound 1 µM
[11] = second compound 0.00316 µM, first compound 3.16 µM
[12] = second compound 0.00316 µM, first compound 10 µM
[13] = second compound 0.01 µM, first compound 0.0316 µM
[14] = second compound 0.01 µM, first compound 0.1 µM
[15] = second compound 0.01 µM, first compound 0.316 µM
[16] = second compound 0.01 µM, first compound 1 µM
[17] = second compound 0.01 µM, first compound 3.16 µM
[18] = second compound 0.01 µM, first compound 10 µM
[19] = second compound 0.0316 µM, first compound 0.0316 µM
[20] = second compound 0.0316 µM, first compound 0.1 µM
[21] = second compound 0.0316 µM, first compound 0.316 µM
[22] = second compound 0.0316 µM, first compound 1 µM
[23] = second compound 0.0316 µM, first compound 3.16 µM
[24] = second compound 0.0316 µM, first compound 10 µM
[25] = second compound 0.1 µM, first compound 0.0316 µM
[26] = second compound 0.1 µM, first compound 0.1 µM
[27] = second compound 0.1 µM, first compound 0.316 µM
[28] = second compound 0.1 µM, first compound 1 µM
[29] = second compound 0.1 µM, first compound 3.16 µM
[30] = second compound 0.1 µM, first compound 10 µM
[31] = second compound 0.316 µM, first compound 0.0316 µM
[32] = second compound 0.316 µM, first compound 0.1 µM
[33] = second compound 0.316 µM, first compound 0.316 µM
[34] = second compound 0.316 µM, first compound 1 µM
[35] = second compound 0.316 µM, first compound 3.16 µM
[36] = second compound 0.316 µM, first compound 10 µM
[37] = second compound 1 µM, first compound 0.0316 µM
[38] = second compound 1 µM, first compound 0.1 µM
[39] = second compound 1 µM, first compound 0.316 µM
[40] = second compound 1 µM, first compound 1 µM
[41] = second compound 1 µM, first compound 3.16 µM
[42] = second compound 1 µM, first compound 10 µM
[43] = curve of first compound, second compound 3.16 µM
[44] = curve of first compound, second compound 10 µM
[45] = second compound 3.16 µM, first compound 0.0316 µM
[46] = second compound 3.16 µM, first compound 0.1 µM
[47] = second compound 3.16 µM, first compound 0.316 µM
[48] = second compound 3.16 µM, first compound 1 µM
[49] = second compound 3.16 µM, first compound 3.16 µM
[50] = second compound 3.16 µM, first compound 10 µM
[51] = second compound 10 µM, first compound 0.0316 µM
[52] = second compound 10 µM, first compound 0.1 µM
[53] = second compound 10 µM, first compound 0.316 µM
[54] = second compound 10 µM, first compound 1 µM
[55] = second compound 10 µM, first compound 3.16 µM
[56] = second compound 10 µM, first compound 10 µM
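Also: spheroids exposed to compounds for seven days before read-out.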

Cn1ncc(Cl)c1-c1cc(C(=O)NC(CN)Cc2cccc(F)c2)sc1Cl (stereo unspecified) + COc1c(OCCCN2CCOCC2)ccc2c3n(c(=NC(=O)c4cnc(N)nc4)nc12)CCN3
active: viability, T/C [18] 8.14% | viability, T/C [24] 4.58% | viability, T/C [29] 6.24% | viability, T/C [30] 2.41% | viability, T/C [31] 5.73% | viability, T/C [32] 5.77% | viability, T/C [33] 6.01% | viability, T/C [34] 3.54% | viability, T/C [35] 3.19% | viability, T/C [36] 1.52% | viability, T/C [37] 1.54% | viability, T/C [38] 1.61% | viability, T/C [39] 1.15% | viability, T/C [40] 1.37% | viability, T/C [41] 1.11% | viability, T/C [42] 0.46%
< 31.6 nM: IC50 [3] | IC50 [4] | IC50 [5] | IC50 [6]
inactive: viability, T/C [7] 81.2% | viability, T/C [8] 85.4% | viability, T/C [9] 54.1% | viability, T/C [10] 36.5% | viability, T/C [11] 17.8% | viability, T/C [12] 10.2% | viability, T/C [13] 69.4% | viability, T/C [14] 68.6% | viability, T/C [15] 49.8% | viability, T/C [16] 28.7% | viability, T/C [17] 14.4% | viability, T/C [19] 39.1% | viability, T/C [20] 36.8% | viability, T/C [21] 32.5% | viability, T/C [22] 19.1% | viability, T/C [23] 9.8% | viability, T/C [25] 21.8% | viability, T/C [26] 17.8% | viability, T/C [27] 14.3% | viability, T/C [28] 12.9%
337 nM: IC50 [2]
486 nM: IC50 [1]

C#Cc1c(F)ccc2cc(O)cc(-c3ncc4c(N5CC6CCC(C5)N6)nc(OCC56CCCN5CC(F)C6)nc4c3F)c12 (stereo unspecified) + CC(Nc1ccc2c(c1)OCCn1cc(N3C(=O)OCC3C(F)F)nc1-2)C(N)=O
inactive: viability, T/C [7] 95.9% | viability, T/C [8] 110% | viability, T/C [9] 89.5% | viability, T/C [10] 87.6% | viability, T/C [11] 71.6% | viability, T/C [12] 76.3% | viability, T/C [13] 92.5% | viability, T/C [14] 95% | viability, T/C [15] 80.9% | viability, T/C [16] 88.2% | viability, T/C [17] 64.8% | viability, T/C [18] 61% | viability, T/C [19] 78.3% | viability, T/C [20] 81.6% | viability, T/C [21] 76.1% | viability, T/C [22] 70% | viability, T/C [23] 61.5% | viability, T/C [24] 45.2% | viability, T/C [25] 60.1% | viability, T/C [26] 64.7% | viability, T/C [27] 57.4% | viability, T/C [28] 48.3% | viability, T/C [29] 41.2% | viability, T/C [30] 30% | viability, T/C [31] 38.3% | viability, T/C [32] 34.6% | viability, T/C [33] 36.1% | viability, T/C [34] 28.2% | viability, T/C [35] 22.6% | viability, T/C [36] 17.3% | viability, T/C [37] 24% | viability, T/C [38] 21.9% | viability, T/C [39] 21.6% | viability, T/C [40] 16% | viability, T/C [41] 12.4% | viability, T/C [42] 9.54%
1020 nM: IC50 [4]
7100 nM: IC50 [3]
< 31.6 nM: IC50 [5] | IC50 [6]
> 10000 nM: IC50 [1] | IC50 [2]

C=CC(=O)N1CCN(c2nc(=O)n(-c3c(C)ccnc3C(C)C)c3nc(-c4c(O)cccc4F)c(F)cc23)C(C)C1 (stereo unspecified)
> 10000 nM: IC50 (curve of compound)
inactive: viability, T/C (compound 0.0316 µM) 93.6% [middle of 4 runs] | viability, T/C (compound 0.1 µM) 100% (2×) and 105% and 96.7% | viability, T/C (compound 0.316 µM) 108% [middle of 4 runs] | viability, T/C (compound 1 µM) 121% [middle of 4 runs] | viability, T/C (compound 10 µM) 118% (2×) and 112% and 127%

CC1(C)CCC(CN2CCN(c3ccc(C(=O)NS(=O)(=O)c4ccc(NCC5CCOCC5)c([N+](=O)[O-])c4)c(Oc4cnc5[nH]ccc5c4)c3)CC2)=C(c2ccc(Cl)cc2)C1 + Cc1nc(NC(=O)N2CCCC2C(N)=O)sc1-c1ccnc(C(C)(C)C(F)(F)F)c1
< 31.6 nM: IC50 [6] | IC50 [43] | IC50 [44]
5150 nM: IC50 [5]
inactive: viability, T/C [19] 88.8% | viability, T/C [20] 96.5% | viability, T/C [21] 97.6% | viability, T/C [22] 100% | viability, T/C [23] 109% | viability, T/C [24] 25.2% | viability, T/C [25] 90.7% | viability, T/C [26] 82.5% | viability, T/C [27] 82.7% | viability, T/C [28] 85.7% | viability, T/C [29] 96% | viability, T/C [30] 33.5% | viability, T/C [31] 65.3% | viability, T/C [32] 64.1% | viability, T/C [33] 61.1% | viability, T/C [34] 63.4% | viability, T/C [35] 67.8% | viability, T/C [36] 30.5% | viability, T/C [37] 52.5% | viability, T/C [38] 47.6% | viability, T/C [39] 41.2% | viability, T/C [40] 40.5% | viability, T/C [41] 40% | viability, T/C [42] 19.3% | viability, T/C [45] 27.4% | viability, T/C [46] 27.2% | viability, T/C [47] 25.6% | viability, T/C [48] 26.3% | viability, T/C [49] 22.3% | viability, T/C [50] 20.4% | viability, T/C [51] 11.4% | viability, T/C [52] 10.8% | viability, T/C [53] 10.2% | viability, T/C [54] 11.8% | viability, T/C [55] 12.4% | viability, T/C [56] 8.8%
7010 nM: IC50 [4]
6770 nM: IC50 [3]

CC(Cn1ccc(-c2ccc(C#N)c(Cl)c2)n1)NC(=O)c1cc(C(C)O)[nH]n1 (stereo unspecified) + CC(Nc1ccc2c(c1)OCCn1cc(N3C(=O)OCC3C(F)F)nc1-2)C(N)=O
inactive: viability, T/C [7] 86.4% | viability, T/C [8] 92.7% | viability, T/C [9] 94% | viability, T/C [10] 97.8% | viability, T/C [11] 105% | viability, T/C [12] 107% | viability, T/C [13] 87.7% | viability, T/C [14] 90.9% | viability, T/C [15] 92.1% | viability, T/C [16] 91.5% | viability, T/C [17] 86.6% | viability, T/C [18] 95.1% | viability, T/C [19] 84.3% | viability, T/C [20] 76.1% | viability, T/C [21] 74.7% | viability, T/C [22] 84.5% | viability, T/C [23] 81.7% | viability, T/C [24] 82.6% | viability, T/C [25] 58.1% | viability, T/C [26] 56.3% | viability, T/C [27] 54.6% | viability, T/C [28] 54.4% | viability, T/C [29] 61.3% | viability, T/C [30] 56.5% | viability, T/C [31] 34.3% | viability, T/C [32] 32.5% | viability, T/C [33] 32.6% | viability, T/C [34] 36.2% | viability, T/C [35] 38.4% | viability, T/C [36] 34.6% | viability, T/C [37] 21.8% | viability, T/C [38] 21.7% | viability, T/C [39] 20.9% | viability, T/C [40] 26.6% | viability, T/C [41] 22.6% | viability, T/C [42] 24.1%
< 31.6 nM: IC50 [5] | IC50 [6]
> 10000 nM: IC50 [1] | IC50 [2] | IC50 [3] | IC50 [4]

CC(Cn1ccc(-c2ccc(C#N)c(Cl)c2)n1)NC(=O)c1cc(C(C)O)[nH]n1 (stereo unspecified) + Cc1nc(NC(=O)N2CCCC2C(N)=O)sc1-c1ccnc(C(C)(C)C(F)(F)F)c1
inactive: viability, T/C [19] 83.7% | viability, T/C [20] 95.2% | viability, T/C [21] 86.4% | viability, T/C [22] 96.9% | viability, T/C [23] 89.8% | viability, T/C [24] 107% | viability, T/C [25] 84.8% | viability, T/C [26] 77.9% | viability, T/C [27] 78.2% | viability, T/C [28] 81.2% | viability, T/C [29] 82.4% | viability, T/C [30] 79.5% | viability, T/C [31] 69.4% | viability, T/C [32] 65.3% | viability, T/C [33] 74.1% | viability, T/C [34] 61% | viability, T/C [35] 61.7% | viability, T/C [36] 66.5% | viability, T/C [37] 43.9% | viability, T/C [38] 41.7% | viability, T/C [39] 43.5% | viability, T/C [40] 45.9% | viability, T/C [41] 44.1% | viability, T/C [42] 44.6% | viability, T/C [45] 24.7% | viability, T/C [46] 26.9% | viability, T/C [47] 27.6% | viability, T/C [48] 25.2% | viability, T/C [49] 26.9% | viability, T/C [50] 28.4% | viability, T/C [51] 10.3% | viability, T/C [52] 10.8% | viability, T/C [53] 10.9% | viability, T/C [54] 11.1% | viability, T/C [55] 10.8% | viability, T/C [56] 13%
< 31.6 nM: IC50 [6] | IC50 [43] | IC50 [44]
> 10000 nM: IC50 [3] | IC50 [4] | IC50 [5]
